# Patent publication US11980616B2, “Treating liver disease by selectively eliminating senescent cells” (Buck Institute for Research on Aging, priority 2014, dated 2024)
# Tests used:
# LDLR-/- mice fed a HFD = assay: Atherosclerosis model, LDLR-/- mice fed a high fat diet; assay type: in vivo, mouse
# Description: Schematics of two atherosclerosis mouse models are presented in FIGS. 43A-B. The study illustrated in FIG. 43A assessed the extent to which clearance of senescent cells from plaques in LDLR^−/− mice with Nutlin-3A reduces plaque load. Two groups of LDLR^−/− mice (10 weeks) are fed a high fat diet (HFD) (Harlan Teklad TD.88137) having 42% calories from fat, beginning at Week 0 and throughout the study. Two groups of LDLR^−/− mice (10 weeks) are fed normal chow (−HFD). From weeks 0-2, one group of HFD mice and −HFD mice are treated with Nutlin-3A (25 mg/kg, intraperitoneally). One treatment cycle is 14 days treatment, 14 days off. Vehicle is administered to one group of HFD mice and one group of −HFD mice. At week 4 (timepoint 1), one group of mice are sacrificed and to assess presence of senescent cells in the plaques. For the some of the remaining mice, Nutlin-3A and vehicle administration is repeated from weeks 4-6. At week 8 (timepoint 2), the mice are sacrificed and to assess presence of senescent cells in the plaques. The remaining mice are treated with Nutlin-3A or vehicle from weeks 8-10. At week 12 (timepoint 3), the mice are sacrificed and to assess the level of plaque and the number of senescent cells in the plaques.
# Plasma lipid levels were measured in LDLR^−/− mice fed a HFD and treated with Nutlin-3A or vehicle at timepoint 1 as compared with mice fed a −HFD (n=3 per group). Plasma was collected mid-afternoon and analyzed for circulating lipids and lipoproteins.
# At the end of timepoint 1, LDLR^−/− mice fed a HFD and treated with Nutlin-3A or vehicle were sacrificed (n=3, all groups), and the aortic arches were dissected for RT-PCR analysis of SASP factors and senescent cell markers. Values were normalized to GAPDH and expressed as fold-change versus age-matched, vehicle-treated LDLR^−/− mice on a normal diet.
# At the end of timepoint 2, LDLR^−/− mice fed a HFD and treated with Nutlin-3A or vehicle (n=3 for all groups) were sacrificed, and aortic arches were dissected for RT-PCR analysis of SASP factors and senescent cell markers. Values were normalized to GAPDH and expressed as fold-change versus age-matched, vehicle-treated LDLR^−/− mice on a normal diet.
# At the end of timepoint 3, LDLR^−/− mice fed a HFD and treated with Nutlin-3A or vehicle (n=3 for all groups) were sacrificed, and aortas were dissected and stained with Sudan IV to detect the presence of lipid. Body composition of the mice was analyzed by MRI, and circulating blood cells were counted by Hemavet. […] As shown in FIGS. 48A-B, the platelet and lymphocyte counts were equivalent between the Nutlin-3A and vehicle treated mice.
# [1] = tested on: senescent lung fibroblasts (Sen(IR)IMR90); assay: Cell count survival assay, irradiation-induced senescent IMR90; assay type: cell-based, human; details: 0, 2.5, 10 μM for 9 days
# Experimental: Foreskin fibroblast cell lines HCA2 and BJ, lung fibroblast cell line IMR90, and mouse embryonic fibroblasts were seeded in six-well plates and induced to senesce with 10 Gy of ionizing radiation (IR) or a 24 hr treatment with doxorubicin (Doxo). Senescent phenotype was allowed to develop for at least 7 days, at which point a cell count was made to determine the baseline number of cells. Nutlin-3a treatment was then initiated for a period of at least 9 days. Media alone or media with drug as appropriate was refreshed at least every three days. At the end of the assay time period, cells are counted. Each condition was seeded in three plate wells and counted independently. Initial cell count serves as a control to determine the induction of senescence, as compared to the last day count without nutlin treatment. Initial non-senescent cell count serves as a proxy to determine Nutlin-3a toxicity.
# Foreskin fibroblast cell lines HCA2 and BJ, lung fibroblast cell line IMR90, and mouse embryonic fibroblasts were exposed to 10 Gy of ionizing radiation (IR) to induce senescence. […] Percent survival was calculated as [cell count on day 9 of Nutlin-3a treatment/initial cell count on first day of Nutlin-3a treatment].
# [2] = tested on: p16-3MR mice fed a high fat diet; assay: High fat feeding-induced senescence in p16-3MR mice, SA-β-Gal staining of adipose tissue; assay type: in vivo, mouse; details: 25 mg/kg daily for five days; p=<0.004
# Experimental: Groups of p16-3MR mice (n=6) were fed a high fat diet (60% fat) for four months mice or a regular chow diet. The presence of senescence cells was determined by measuring luminescence p16 positive cells). […] Animals were then treated with ganciclovir or vehicle to determine if removal of senescent cells reduced the presence of senescent cells in adipose tissue. Groups of animals were treated with ganciclovir or vehicle. Ganciclovir (25 mg/kg) was administered daily for five consecutive days. The presence of senescent cells in perirenal, epididymal, or subcutaneous inguinal adipose tissue was detected by SA-β-Gal staining. Data were analyzed by ANOVA.
# [3] = tested on: p16-3MR mice fed a high fat diet; assay: Glucose tolerance and insulin sensitivity in p16-3MR mice fed a high fat diet; assay type: in vivo, mouse
# Experimental: Groups of p16-3MR mice (n=9) were fed a high fat diet for four months mice or a regular chow diet. Animals were then treated with ganciclovir (3 rounds of 25 mg/kg ganciclovir administered daily for five consecutive days) or vehicle. A glucose bolus was given at time zero, and blood glucose was monitored at 20, 30, 60, and 120 minutes after delivering glucose to determine glucose disposal (see FIG. 69A). […] Insulin sensitivity was also determined (Insulin Tolerance Testing (ITT)). […] Changes in weight, body composition, and food intake were also monitored.
# [4] = tested on: p16-3MR mice treated with paclitaxel; assay: Voluntary exercise (wheel counts) after paclitaxel in p16-3MR mice; assay type: in vivo, mouse; details: ABT-263 100 mg/kg i.p. daily 7 days; ganciclovir 25 mg/kg i.p. daily 3 days
# Experimental: The capability of a senolytic agent, such as ABT-263, to reduce chemotherapy related side effects, such as fatigue, was examined in p16-3MR transgenic mice. In addition to doxorubicin, paclitaxel also induces cellular senescence when administered to animals. See Example 2 for a description of the p16-3MR transgenic mouse model.
# In this experiment, paclitaxel was administered to groups of p16-3mr mice (n=4) three times, every two days. Two days after the third dose of paclitaxel, ganciclovir was administered daily for three days (days 1, 2, and 3) intraperitoneally at 25 mg/kg. ABT-263 (100 mg/kg) was administered intraperitoneally daily for seven days after paclitaxel administration. Two days after the last dose of ABT-263, all groups of animals were housed in metabolic cages (promethion, sable systems international, Las Vegas, NV) to monitor voluntary exercise as determined by wheel counts. Data were collected and analyzed two days later. Clearance of senescent cells by ABT-263 and ganciclovir restored approximately 70% of wheel count reduction caused by chemotherapy treatment.
# [5] = 3 rounds of 25 mg/kg daily for five days, vs vehicle
SMILES,"Expression of SASP factors and senescent cell markers in aortic arch (RT-PCR) (LDLR-/- mice fed a HFD; 25 mg/kg i.p., after 1 treatment cycle, MMP3, MMP13, PAI1, p21, IGFBP2, IL-1A, IL-1B)","Expression of SASP factors and senescent cell markers in aortic arch (RT-PCR) (LDLR-/- mice fed a HFD; 25 mg/kg i.p., multiple (two) treatment cycles)","Reduction of plaques in the descending aorta (Sudan IV) (LDLR-/- mice fed a HFD; 25 mg/kg i.p., three treatment cycles, week 12)",Lymphocyte count vs vehicle (LDLR-/- mice fed a HFD; three treatment cycles),Platelet count vs vehicle (LDLR-/- mice fed a HFD; three treatment cycles),Percent survival [1],Presence of senescent cells in epididymal fat (SA-β-Gal staining) [2],"Insulin Tolerance Testing: blood glucose ([3]; 0, 14, 30, 60, and 120 minutes)","Glucose tolerance test AUC [3, 5]","Hemoglobin A1c [3, 5]",Restoration of wheel count reduction caused by chemotherapy [4]
COc1ccc(C2=N[C@@H](c3ccc(Cl)cc3)[C@@H](c3ccc(Cl)cc3)N2C(=O)N2CCNC(=O)C2)c(OC(C)C)c1 [Nutlin-3a],reduced expression of several SASP factors and senescent cell markers,reduced expression of most markers,~45%,equivalent,equivalent,reduced cell survival,–,–,–,–,–
Nc1nc(O)c2ncn(COC(CO)CO)c2n1 [ganciclovir],–,–,–,–,–,–,significant reduction,greater decrease in blood glucose,significantly lower,lower,approximately 70%
